Test results from US20190328825A1, “METHODS FOR TREATING AUTISM SPECTRUM DISORDER AND ASSOCIATED SYMPTOMS” (Arizona Board of Regents on behalf of Arizona State …, priority 2015, published 2019).

How the values were obtained:
[1] = tested on: children with ASD; test: Toleration of study medications / adverse effects
Description: The participants were given oral vancomycin (a non-absorbable broad spectrum antibiotic that stays in the GI tract) for 2 weeks to reduce levels of pathogenic bacteria, and then 1 day of low-volume colonoscopy prep MoviPrep® (a drink that flushes the bowels, to remove most remaining gut bacteria and vancomycin) to clear the residual vancomycin and feces. The vancomycin was intended to kill off harmful bacteria, the fasting was intended to remove any remaining bacteria and to minimize other luminal fecal material, and the colon cleanse helped remove the vancomycin and cleanse the lower GI Tract.
The rectal dose was administered under the direct supervision of the study physician, and the first oral dose was similarly administered in the presence of the physician. Participants were randomly assigned to either the oral or rectal route of administration. If one administration route was not tolerated, or if the family preferred the other route, then participants had the option of trying the other route. For the participants with initial oral dose, a lower oral maintenance dose (2.5×10^9 CFU) was followed for 8 weeks right after the major oral initial dose. Whereas, the major rectal initial dose was followed by waiting period of 1 week followed by a lower oral maintenance dose (2.5×10^9 CFU) for 7 weeks. The maintenance SHGM dose were self-administered orally every day up to week 10. After treatment was stopped, participants were monitored for another 8 weeks.
Prilosec (omeprazole) was administered daily to reduce stomach acid and thereby increase viability of the MTT, starting on the 12th day of oral vancomycin treatment and continuing until the end of the maintenance dose.

[2] = tested on: children with ASD; test: Complete Blood Count / blood chemistry panel; format: in vivo, human
Description: The following minor changes were observed. There was a 5% decrease in potassium (p=0.01) from beginning to end of treatment, but all levels remain in the normal range. After the vancomycin (2nd week of study), there was a 8% increase in platelets (p=0.03). Four subjects had elevated levels at start, and only 2 had elevated levels after vancomycin. There was a 26% drop in blood urea nitrogen (BUN) (p=0.002), but all stayed in normal range. There was a 6% increase in albumin to globulin (A/G) ratio (p=0.03), with 1 slightly elevated. There was a 17% increase in aspartate amino transferase (AST) (p=0.01), but all remained in normal range. There was a 24% increase in alanine amino transferase (ALT) (p=0.003), where 1 remained elevated and 2 became slightly elevated. […] Slight changes (1-2%) in red blood cell indices (Mean corpuscular volume (MCV), Mean corpuscular hemoglobin (MCH), Mean corpuscular hemoglobin concentration (MCHC), and Red cell distribution width (RDW)) were observed.

[3] = human, in vivo, 40 mg/kg per day

| SMILES | toleration of study medication ([1]; in vivo) | platelets, BUN, A/G, AST, ALT ([2]; 3rd and 4th tests) | increase in alanine amino transferase (ALT) ([2]; after the vancomycin) | increase in albumin to globulin (A/G) ratio ([2]; after the vancomycin) | increase in platelets ([2]; after the vancomycin (2nd week of study)) | increase in aspartate amino transferase (AST) ([2]; after the vancomycin, all remained in normal range) | drop in blood urea nitrogen (BUN) ([2]; after the vancomycin, all stayed in normal range) | duration of behavioral reaction in most cases [1, 3] | onset of behavioral reaction after start of vancomycin [1, 3] | severity of behavioral symptoms ([1]; hyperactivity, tantrumming/aggression) | duration of behavioral symptoms in 1 participant ([1]; longest case) | children developing rash ([1]; oral vancomycin with natural orange flavor, 18 children) | adverse effects overall ([1]; primarily mild to moderate hyperactivity and tantrums/aggression) | cases of increased hyperactivity ([1]; temporary, start of vancomycin) | cases of increased tantrums/aggression ([1]; temporary, start of vancomycin) |
| --- | --- | --- | --- | --- | --- | --- | --- | --- | --- | --- | --- | --- | --- | --- | --- |
| COc1ccc2[nH]c([S+]([O-])Cc3ncc(C)c(OC)c3C)nc2c1 (stereo not drawn) [Prilosec, omeprazole] | generally well-tolerated |  |  |  |  |  |  |  |  |  |  |  |  |  |  |
| CN[C@H](CC(C)C)C(=O)N[C@H]1C(=O)N[C@@H](CC(N)=O)C(=O)N[C@H]2C(=O)N[C@H]3C(=O)N[C@H](C(=O)N[C@H](C(=O)O)c4cc(O)cc(O)c4-c4cc3ccc4O)[C@H](O)c3ccc(c(Cl)c3)Oc3cc2cc(c3O[C@@H]2O[C@H](CO)[C@@H](O)[C@H](O)[C@H]2O[C@H]2C[C@](C)(N)[C@H](O)[C@H](C)O2)Oc2ccc(cc2Cl)[C@H]1O [vancomycin] |  | returned to similar to baseline | 24% | 6% | 8% | 17% | 26% | 1 to 3 days | 1 to 4 days | mild to moderate | 3 weeks | One and one | only temporary adverse effects | 7 | 5 |
